Test results published in patent US11366103B2, “Multi-well micropatterning by ablation” (Massachusetts Institute of Technology, priority 2006, dated 2022).
Like-named read-outs stand apart in the source and are kept apart here.

Legend:
[1] = system: CYP450 enzymes; assay: CYP450-mediated dealkylation of BFC and MFC in micropatterned rat co-cultures; assay type: in vitro ADME
Description: Therefore, in order to improve the signal-to-noise ratio, levels of CYP1A was ‘induced’ by pre-incubating co-cultures with 3 μM 3-Methylcholanthrene (3-MC) for 3 days prior to assessment of substrate metabolism. […] ER and MR are fluorimetric substrates specific for CYP1A enzymes. […] Use of non-specific substrates provides for an ‘average’ value of CYP450 activity, and is useful to determine whether CYP450 enzymes are functional in a particular system. In FIG. 22A, co-cultures were able to successfully dealkylate BFC and MFC into 7-HFC. […] CYP450 enzymes are oxido-reductases that are part of the Phase I metabolic pathway in hepatocytes. The phase II family of enzymes, on the other hand, is typically involved in the conjugation of highly polar moieties (i.e. sulfate group, glucuronic acid) to xenobiotics to make them water-soluble for excretion out of the body via bile or through the kidneys. A useful substrate for evaluating conjugation reactions is the fluorescent substrate, 7-Hydroxycoumarin (7-HC), which gets modified to non-fluorescent compounds, 7-HC-Glucuronide and 7-HC-Sulfate. The level of conjugation can then be quantified by using bacterial-derived β-glucuronidase and aryl-sulfatase enzymes to ‘deconjugate’ the Phase II products and recover 7-HC fluorescence. In our micropatterned rat co-cultures, we observed time-dependent conjugation of 7-HC by Phase-II enzymes (FIG. 22B). […]

[2] = target: T1, CYP2A6 (Homo sapiens, UniProt P11509)
T1 sequence (P11509 1-494): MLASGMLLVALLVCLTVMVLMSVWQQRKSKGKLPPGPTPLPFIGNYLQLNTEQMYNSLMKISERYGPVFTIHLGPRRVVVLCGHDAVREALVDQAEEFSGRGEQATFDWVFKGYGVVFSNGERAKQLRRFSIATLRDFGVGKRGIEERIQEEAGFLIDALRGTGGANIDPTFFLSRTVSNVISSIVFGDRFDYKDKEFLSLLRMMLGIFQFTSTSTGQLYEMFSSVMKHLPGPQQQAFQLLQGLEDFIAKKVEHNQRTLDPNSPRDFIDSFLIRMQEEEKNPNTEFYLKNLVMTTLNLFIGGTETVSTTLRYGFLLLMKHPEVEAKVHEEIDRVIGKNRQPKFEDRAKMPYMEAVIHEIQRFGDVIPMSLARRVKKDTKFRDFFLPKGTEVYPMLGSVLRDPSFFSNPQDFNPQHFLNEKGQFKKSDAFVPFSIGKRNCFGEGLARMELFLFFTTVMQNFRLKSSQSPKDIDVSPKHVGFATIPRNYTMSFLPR

[3] = system: CYP1A
Description: Cultures were treated for 3-4 days before incubation with fluorometric or conventional CYP450 substrates. All data was normalized to vehicle-only controls (fold change of 1). […] Substrate/inhibitor combinations: BFC/ketoconazole (CYP3A4), MFC/sulfaphenazole (CYP2C9), Coumarin/methoxsalen (CYP2A6), and 7-Hydroxycoumarin/Salicylamide (Glucuronidation). […] Data were normalized to vehicle-only controls.
Stock solutions of prototypic CYP450 inducers (Sigma) were made in Dimethylsulfoxide (DMSO), except for Phenobarbital, which was dissolved in water. […] Control cultures were treated with vehicle (DMSO) alone for calculations of fold induction. To enable comparisons across inducers, DMSO levels were kept constant at 0.1% (v/v) for all conditions.

[4] = system: micropatterned co-cultures of primary human hepatocytes and 3T3-J2 fibroblasts
Description: Mitochondrial toxicity was evaluated using the MTT assay. […] All data were normalized to a vehicle-only control. […] Tissues were dosed repeatedly every 48 hours. All data was normalized to mitochondrial activity in untreated cultures (100% activity).
In order to assess the utility of micropatterned co-cultures for toxicity screening, the acute and chronic toxicity of model hepatotoxins was quantified. […] Establishment of liver tissue that is stable over several weeks is crucial for evaluating chronic toxicity due to repeated exposures.
Cultures were incubated with various concentrations of compounds dissolved in culture medium for 24 hours (acute toxicity) or extended time periods (chronic toxicity, 1-9 days). Cell viability was subsequently measured via the MTT (3-(4,5-dimethylthiazol-2-yl)-2,5-diphenyl tetrazolium bromide; Sigma) assay, which involves cleavage of the tetrazolium ring by mitochondrial dehydrogenase enzymes to form a purple precipitate. MTT was added to cells in DMEM without phenol red at a concentration of 0.5 mg/mL. After an incubation time of 1 hour, the purple precipitate was dissolved in a 1:1 solution of DMSO and Isopropanol. The absorbance of the solution was measured at 570 nm (SpectraMax spectrophotometer, Molecular Devices, Sunnyvale, Calif.).

[5] = system: CYP2A; assay: Coumarin 7-hydroxylation in micropatterned rat co-cultures; assay type: in vitro ADME
Source text: (§1) FIGS. 33A-33C depict a comparison of Phase I- and Phase II-mediated substrate metabolism in human and rat co-cultures. Micropatterned cultures with either primary human or primary rat hepatocytes were created using the stencil-based process. Subsequent addition of 3T3-J2 fibroblasts created co-cultures. […] Data from a single representative day is shown.
(§2) Significant variations in hepatocellular functions (i.e. CYP450 enzymes) across different species have been implicated in the inability of animal models to adequately predict adverse outcomes in clinical trials involving humans. Nonetheless, studies in live animals are required by the FDA since they provide valuable in vivo data in a preclinical setting. Therefore, the selection of an animal species (i.e. rat, mouse, monkey, guinea pig) in which the liver-specific metabolism and toxicity of a particular candidate drug are similar to that seen in humans is crucial for clinical success. In vitro human and animal models that closely resemble in-vivo functionality may find use in such a selection process. […] For instance, BFC was dealkylated in rat co-cultures at a rate (pmoles/min/10^6 cells) that was ˜18 fold greater than the rate seen in human co-cultures.
Spent media was stored at −20° C.

[6] = target: T2, CYP2A (Homo sapiens, UniProt P11509); assay: Coumarin 7-hydroxylation in micropatterned human co-cultures; assay type: in vitro ADME
T2 construct: endogenous in cells; host or cells: primary human hepatocytes co-cultured with murine 3T3-J2 fibroblasts
T2 sequence (P11509 1-494): T1 sequence (P11509 1-494)
Source text: as §1, §2

[7] = system: CYP3A; assay: Inhibition of BFC dealkylation in rat co-cultures; details: BFC in the presence of ketoconazole
[8] = system: pure hepatocyte monolayers; details: rat, 24 h; for viability relative to untreated controls: 1 mM
[9] = system: co-cultures of primary rat hepatocytes and 3T3-J2 fibroblasts; details: for viability relative to untreated controls: 1 mM
Description: Toxicity of pharmaceuticals due to chronic exposure is clinically relevant. Since hepatocyte culture models utilized in the pharmaceutical industry lose viability and phenotypic functions within a few days, toxicity due to repeated drug exposures over days or weeks cannot be evaluated. […] Co-cultures were incubated with varying doses of toxins dissolved in culture medium over several days. Mitochondrial activity (MTT assay, see methods) was evaluated at different time points to assess viability in co-cultures.
Pure hepatocyte monolayers rapidly lose phenotypic functions and thus represent an ‘unstable’ model of the liver. […] The objective here was to compare toxicity of model Hepatotoxins in pure hepatocyte monolayers and co-cultures. Pure hepatocyte monolayers (Day 2 of culture) or hepatocyte-fibroblast co-cultures (Day 13) prepared from the same rat liver were treated with Hepatotoxins for 24 hours, after which viability was assessed via the MTT assay.
All chemicals were purchased from Sigma. In order to evaluate the acute toxicity of compounds, cultures were incubated with various concentrations of compounds dissolved in culture medium for 24 hours. For chronic studies, culture media with fresh Hepatotoxins was added every 2 days. Cell viability at different time points was subsequently measured via the MTT assay.

[10] = system: CYP1A2; assay: Dose and time-dependent CYP1A2 induction in micropatterned co-cultures; details: incubation for 1 or 3 days

Q: What does the source list for `O=c1cc(C(F)(F)F)c2ccc(OCc3ccccc3)cc2o1` [BFC]?
A: rate of BFC metabolism relative to rate of MFC metabolism ([1]; rat co-cultures, day 14): ~12 fold; rate of BFC dealkylation in rat relative to human co-cultures ([1]; rat, human): ~18 fold

Q: With `COc1c2occc2cc2ccc(=O)oc12` [Methoxsalen] as the compound, how does the “inhibition of CYP2A6 activity” value [2] read?
A: dose-dependent inhibition

Q: For `COc1ccc2[nH]c([S+]([O-])Cc3ncc(C)c(OC)c3C)nc2c1` (centres unmarked) [Omeprazole], which “CYP1A induction, effectiveness in human over rat models” value [3] is on record?
A: 8 fold

Q: How did the “shape of dose-dependent acute toxicity profile” value ([4]; 24 hrs exposure, MTT) turn out when `[Cd]` [cadmium] was run?
A: relatively linear toxic profile

Q: And the “TC50 relative to other compounds” value ([4]; concentration producing 50% reduction in mitochondrial activity (MTT) after 24 hours exposure)?
A: three orders-of-magnitude lower than the TC50 values for aspirin and caffeine

Q: With `O=c1ccc2ccccc2o1` [coumarin] as the compound, how does the coumarin hydroxylation [5] read?
A: unable to hydroxylate coumarin

Q: What about the “rate of coumarin hydroxylation” value [6] of the same compound?
A: greater than 6 pmol/min/10^6 cells

Q: Which “inhibition of BFC dealkylation” value [7] does the source give for `CC(=O)N1CCN(c2ccc(OCC3COC(Cn4ccnc4)(c4ccc(Cl)cc4Cl)O3)cc2)CC1` (centres unmarked) [ketoconazole] here?
A: ~33%

Q: With `CN(C)CCN(Cc1cccs1)c1ccccn1` [methapyrilene] as the compound, how does the “viability relative to untreated controls” value [8] read?
A: less than 6%

Q: And the “relative toxicity in pure monolayers versus co-cultures” value [9]?
A: more toxic to pure monolayers as compared to co-cultures

Q: And the TC50 ([9]; rat, 24 h)?
A: 1400 to 1600 µM

Q: What about the “viability relative to untreated controls” value ([9]; rat, 24 h) of the same compound?
A: greater than 80%

Q: Which results are given for `COc1ccc(CN(CCN(C)C)c2ccccn2)cc1` [pyrilamine]?
A: viability relative to untreated controls [8]: less than 6%; relative toxicity in pure monolayers versus co-cultures [9]: more toxic to pure monolayers as compared to co-cultures; TC50 ([9]; rat, 24 h): 1000 to 1200 µM; viability relative to untreated controls ([9]; rat, 24 h): greater than 80%; TC50 ([9]; rat, 7 days): ~200 µM

Q: Which “concentration giving ~44% reduction of viability” value [8] does the source give for `Cc1c(C)c2c(c(C)c1O)CCC(C)(COc1ccc(CC3SC(=O)NC3=O)cc1)O2` (centres unmarked) [troglitazone] here?
A: 227 µM

Q: And the “relative toxicity in pure monolayers versus co-cultures” value [9]?
A: more toxic to co-cultures as compared to pure monolayers

Q: And the reduction of viability ([9]; rat, 24 h, 170 μM)?
A: ~44%

Q: What about the chronic toxicity [4] of the same compound?
A: dose and time-dependent toxicity

Q: With `O=c1cc(-c2ccccc2)oc2ccc3ccccc3c12` [β-Naphthoflavone] as the compound, how does the “induction of CYP1A2 activity” value [10] read?
A: induced CYP1A2 activity in a dose and time-dependent manner
